Experimental data: US11584747B2, “Substituted pyridopyrimidinonyl compounds useful as T cell activators” (BRISTOL-MYERS SQUIBB COMPANY, priority 2019, dated 2023)
Where two headings read alike, the source gives them in different places.

Tests used:
human DGKα [1] = target: T1, human DGKα (Homo sapiens (Human), UniProt P23743); assay: DGKα LIPGLO assay (extruded liposome substrate, ADP-Glo luminescence); type: biochemical; conditions: liposome assay; read-out: DGK alpha LIPGLO IC50
[2] = test system: human venous whole blood (IFN-γ); assay: Human whole blood IFN-γ assay; type: cell-based; conditions: whole blood, normalized to 3 μM reference compound as 100% activation, read-out: IFN-γ Whole Blood Normalized EC50
Protocol: Human venous whole blood (22.5 μL per well), obtained from healthy donors, was pre-treated with compounds for one hour at 37° C. in a humidified 95% air/5% CO2 incubator. The blood was stimulated with 2.5 μL anti-human CD3 and anti-CD28 mAb at a final concentration of 1 μg/mL each for 24 hours at 37° C. IFN-γ in the supernatants was measured using AlphLISA kit (Cat #AL217).

whole blood (pERK) = assay: pERK Whole Blood assay (Table A; no whole-blood pERK method described); type: cell-based; conditions: normalized
human DGKζ = human DGKζ (Homo sapiens (Human), UniProt Q13574); assay: DGKζ LIPGLO assay (extruded liposome substrate, ADP-Glo luminescence); type: biochemical; conditions: liposome assay; read-out: DGK zeta LIPGLO IC50
human DGKα [3] = target: T1, human DGKα; assay: DGKα ADPGLO assay (detergent/lipid micelle substrate); type: biochemical; conditions: truncated DGK alpha; read-out: DGK alpha ADPGLO (Truncated) IC50
Protocol: DGK Alpha ADPGLO (Truncated) IC50 (uM)
The detergent/lipid micelle was prepared by combining 15 g phosphatidylserine (Avanti 840035P) and 1 g diacylglycerol (8008110) and dissolving into 150 mL chloroform in a 2 L round bottom flask. Chloroform was removed under high vacuum by rotary evaporation. […] The lipid/detergent solution was split into 5 mL aliquots and stored at −80° C.

human DGKζ, sequence (Q13574 other isoform, or with tags, fused parts or gaps): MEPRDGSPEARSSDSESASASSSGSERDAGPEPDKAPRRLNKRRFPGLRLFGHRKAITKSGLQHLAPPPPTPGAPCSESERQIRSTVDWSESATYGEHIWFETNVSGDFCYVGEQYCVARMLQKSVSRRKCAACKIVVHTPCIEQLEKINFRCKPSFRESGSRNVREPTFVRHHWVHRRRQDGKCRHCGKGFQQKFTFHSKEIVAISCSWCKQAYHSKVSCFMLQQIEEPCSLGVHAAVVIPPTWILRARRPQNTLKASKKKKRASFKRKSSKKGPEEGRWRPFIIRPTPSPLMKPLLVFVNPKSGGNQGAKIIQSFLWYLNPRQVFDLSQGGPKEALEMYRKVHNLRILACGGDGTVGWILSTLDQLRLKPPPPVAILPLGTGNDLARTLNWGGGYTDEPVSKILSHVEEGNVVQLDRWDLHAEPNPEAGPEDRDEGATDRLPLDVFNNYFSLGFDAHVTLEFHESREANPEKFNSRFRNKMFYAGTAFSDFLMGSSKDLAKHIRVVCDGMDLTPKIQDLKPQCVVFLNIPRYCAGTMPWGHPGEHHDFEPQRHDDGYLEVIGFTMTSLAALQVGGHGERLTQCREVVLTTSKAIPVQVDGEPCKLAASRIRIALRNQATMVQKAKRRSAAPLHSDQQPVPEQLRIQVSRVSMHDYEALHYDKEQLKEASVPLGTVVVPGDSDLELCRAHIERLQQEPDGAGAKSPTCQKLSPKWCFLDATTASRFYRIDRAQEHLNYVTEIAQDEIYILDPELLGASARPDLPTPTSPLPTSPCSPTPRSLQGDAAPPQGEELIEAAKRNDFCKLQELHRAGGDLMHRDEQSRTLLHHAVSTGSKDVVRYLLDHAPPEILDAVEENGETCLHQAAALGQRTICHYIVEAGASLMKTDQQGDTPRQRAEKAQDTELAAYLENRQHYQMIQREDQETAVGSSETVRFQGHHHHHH
T1 sequence (P23743 whole entry, looked up): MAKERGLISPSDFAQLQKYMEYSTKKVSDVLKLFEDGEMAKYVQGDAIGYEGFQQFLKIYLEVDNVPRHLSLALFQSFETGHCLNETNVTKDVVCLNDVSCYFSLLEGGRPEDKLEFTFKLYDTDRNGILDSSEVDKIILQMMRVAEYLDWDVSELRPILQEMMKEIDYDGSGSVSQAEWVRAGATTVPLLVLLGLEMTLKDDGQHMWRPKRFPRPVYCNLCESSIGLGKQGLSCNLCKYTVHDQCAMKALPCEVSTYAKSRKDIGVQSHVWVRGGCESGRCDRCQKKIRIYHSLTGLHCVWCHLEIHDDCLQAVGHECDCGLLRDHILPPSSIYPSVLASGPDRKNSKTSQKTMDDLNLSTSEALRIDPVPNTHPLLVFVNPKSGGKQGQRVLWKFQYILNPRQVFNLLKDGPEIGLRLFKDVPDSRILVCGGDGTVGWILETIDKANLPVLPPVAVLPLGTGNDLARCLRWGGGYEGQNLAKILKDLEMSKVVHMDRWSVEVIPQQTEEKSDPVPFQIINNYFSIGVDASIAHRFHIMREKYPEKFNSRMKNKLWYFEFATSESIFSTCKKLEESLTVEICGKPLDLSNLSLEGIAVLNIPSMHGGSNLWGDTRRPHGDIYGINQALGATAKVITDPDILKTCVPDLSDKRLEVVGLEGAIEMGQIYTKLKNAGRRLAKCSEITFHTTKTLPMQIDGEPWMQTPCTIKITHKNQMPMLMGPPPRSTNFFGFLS

SMILES	IC50 (human DGKα [1]) [nM]	EC50 [2] [nM]	IC50 (whole blood (pERK)) [nM]	IC50 (human DGKζ) [nM]	EC50 ([2]; Homo sapiens) [nM]	IC50 (human DGKα [3]) [nM]
COC[C@@H]1CN(c2nc(=O)n(C)c3ccc(C#N)nc23)[C@@H](C)CN1C(C)c1ccc(OC(F)(F)F)cc1 (single isomer, unassigned) [Example 177]	610	1710	520	770		
CC[C@@H]1CN(c2nc(=O)n(C)c3ccc(C#N)nc23)[C@@H](C)CN1C(C)c1ccc(OC(F)(F)F)cc1 (single isomer, unassigned) [Example 48]	16	18	25	48		
CC[C@H]1CN(C(c2ccc(F)cc2)c2nc(C3CC3)nn2C)[C@H](CC)CN1c1nc(=O)n(C)c2ccc(C#N)nc12 (single isomer, unassigned) [Example 294]	8290		200	42	660	
CC(c1ccc(OC(F)(F)F)cc1)N1C[C@H](C)N(c2nc(=O)n(C)c3ccc(C#N)nc23)C[C@H]1C (single isomer, unassigned) [Example 131]	10	360	170	130		
C[C@@H]1CN(c2nc(=O)n(C)c3ccc(C#N)nc23)[C@@H](C)CN1C(c1ccc(F)cc1)c1nc(C2CC2)no1 (single isomer, unassigned) [Example 107]	130	49	120	40		
C[C@@H]1CN(c2nc(=O)n(C)c3ccc(C#N)nc23)[C@@H](C)CN1C(c1ccc(F)cc1)c1nc(C(C)(C)C)no1 (single isomer, unassigned) [Example 108]	400		28	50	57	
CCC(c1ccc(OC(F)(F)F)cc1F)N1C[C@H](CC)N(c2nc(=O)n(C)c3ccc(C#N)nc23)C[C@H]1CC (single isomer, unassigned) [Example 12]	410		600	600	4150	
CC[C@H]1CN(C(C)c2ccc(C(F)(F)F)cc2)[C@H](C)CN1c1nc(=O)n(C)c2ccc(C#N)nc12 (stereo partly drawn) [Example 117, 4-((2S,5R)-2-ethyl-5-methyl-4-(1-(4-(trifluoromethyl)phenyl)ethyl)piperazin-1-yl)-1-methyl-2-oxo-1,2-dihydropyrido[3,2-d]pyrimidine-6-carbonitrile]	2	160	780	2		
CC[C@@H]1CN(c2nc(=O)n(C)c3ccc(C#N)nc23)[C@@H](C)CN1Cc1ccc(OC(F)(F)F)cc1 [Example 54, 4-((2S,5R)-5-ethyl-2-methyl-4-(4-(trifluoromethoxy)benzyl)piperazin-1-yl)-1-methyl-2-oxo-1,2-dihydropyrido[3,2-d]pyrimidine-6-carbonitrile]	240		910	350	310	
CC[C@@H]1CN(c2nc(=O)n(C)c3ccc(C#N)nc23)[C@@H](C)CN1C(C)c1ccc(OC(F)(F)F)cc1F (single isomer, unassigned) [Example 81]	300	57	99	130		
CC(c1ccc(OC(F)(F)F)cc1F)N1C[C@H](C)N(c2nc(=O)n(C)c3ccc(C#N)nc23)C[C@H]1C (single isomer, unassigned) [Example 143]	1330		1140	2120		
CC[C@@H]1CN(c2nc(=O)n(C)c3ccc(C#N)nc23)[C@@H](C)CN1C(c1ccc(F)cc1)c1cc(C2CC2)on1 (single isomer, unassigned) [Example 101]	140		250	66	100	
CC(c1ccc(OC(F)F)cc1)N1C[C@H](C)N(c2nc(=O)n(C)c3ccc(C#N)nc23)C[C@H]1C (single isomer, unassigned) [Example 157]	330		4360	1380	1420	
CC[C@H]1CN(C(C)c2ccc(OC(F)(F)F)c(F)c2)[C@H](CC)CN1c1nc(=O)n(C)c2ccc(C#N)nc12 (single isomer, unassigned) [Example 30]	76	23	59	4		
CC[C@H]1CN(C(c2ccc(F)cc2)c2ccc(C(F)(F)F)cn2)[C@H](CC)CN1c1nc(=O)n(C)c2ccc(C#N)nc12 (single isomer, unassigned) [Example 2]	32	76	150	47		
CC(c1ccc(C(F)(F)F)cc1F)N1C[C@H](C)N(c2nc(=O)n(C)c3ccc(C#N)nc23)C[C@H]1C (single isomer, unassigned) [Example 151]	3460		1870	830		
CC[C@@H]1CN(c2nc(=O)n(C)c3ccc(C#N)nc23)[C@@H](C)CN1C(c1ccc(F)cc1)c1ccon1 (single isomer, unassigned) [Example 73]	29	22	80	140		
CC(c1ccc(OC(F)(F)F)cc1)N1C[C@H](C)N(c2nc(=O)n(C)c3ccc(C#N)nc23)C[C@H]1CO (single isomer, unassigned) [Example 183]	83	2330	270	2690		
CC[C@H]1CN(C(C)c2ccc(C(C)(C)C#N)cc2)[C@H](CC)CN1c1nc(=O)n(C)c2ccc(C#N)nc12 (stereo partly drawn) [Example 196, 4-((2S,5R)-4-(1-(4-(2-cyanopropan-2-yl)phenyl)ethyl)-2,5-diethylpiperazin-1-yl)-1-methyl-2-oxo-1,2-dihydropyrido[3,2-d]pyrimidine-6-carbonitrile]	120	31	49	12		
CC[C@H]1CN(C(c2ccc(F)cc2)c2ccc(C(F)(F)F)cn2)[C@H](CC)CN1c1nc(=O)n(C)c2ccc(C#N)nc12 (single isomer, unassigned) [Example 1]	16	27	1040	36		
C[C@@H]1CN(c2nc(=O)n(C)c3ccc(C#N)nc23)[C@@H](C)CN1C(c1ccc(F)cc1)c1ccon1 (single isomer, unassigned) [Example 163]	38	250	490	460		
CCC(c1ccc(OC(F)(F)F)cc1F)N1C[C@H](C)N(c2nc(=O)n(C)c3ccc(C#N)nc23)C[C@H]1C (single isomer, unassigned) [Example 152]	29	200	110	92		
CC(c1ccc(C2CC2)cc1F)N1C[C@H](C)N(c2nc(=O)n(C)c3ccc(C#N)nc23)C[C@H]1C (single isomer, unassigned) [Example 168]	230	110	220	150		
CC(c1ccc(C(F)(F)F)cc1F)N1C[C@H](C)N(c2nc(=O)n(C)c3ccc(C#N)nc23)C[C@H]1C (single isomer, unassigned) [Example 150]	350		140	200	480	
CC[C@H]1CN(C(C)c2ccc(C(F)(F)F)cc2)[C@H](CC)CN1c1nc(=O)n(C)c2ccc(C#N)nc12 (single isomer, unassigned) [Example 20]	140	60	130	36		
CC(c1ccc(F)cc1F)N1C[C@H](C)N(c2nc(=O)n(C)c3ccc(C#N)nc23)C[C@H]1C (single isomer, unassigned) [Example 144]	28		65	46		
CC(c1ccc(Cl)cc1F)N1C[C@H](C)N(c2nc(=O)n(C)c3ccc(C#N)nc23)C[C@H]1C (single isomer, unassigned) [Example 147]	1460		1000	1130		
CC[C@H]1CN(C(C)c2ccc(CN3CCN(C(C)=O)CC3)cc2)[C@H](CC)CN1c1nc(=O)n(C)c2ccc(C#N)nc12 (stereo partly drawn) [Example 283, 4-((2S,5R)-4-(1-(4-((4-acetylpiperazin-1-yl)methyl)phenyl)ethyl)-2,5-diethylpiperazin-1-yl)-1-methyl-2-oxo-1,2-dihydropyrido[3,2-d]pyrimidine-6-carbonitrile]		1250	6260	2430		200
CCC(c1ccc(OC(F)F)cc1F)N1C[C@H](CC)N(c2nc(=O)n(C)c3ccc(C#N)nc23)C[C@H]1CC (stereo partly drawn) [Example 232, 4-((2S,5R)-4-(1-(4-(difluoromethoxy)-2-fluorophenyl)propyl)-2,5-diethylpiperazin-1-yl)-1-methyl-2-oxo-1,2-dihydropyrido[3,2-d]pyrimidine-6-carbonitrile]		44	44	13		2
CC[C@H]1CN(C(C)c2cccc(OC)n2)[C@H](CC)CN1c1nc(=O)n(C)c2ccc(C#N)nc12 (stereo partly drawn) [Example 215, 4-((2S,5R)-2,5-diethyl-4-(1-(6-methoxypyridin-2-yl)ethyl)piperazin-1-yl)-1-methyl-2-oxo-1,2-dihydropyrido[3,2-d]pyrimidine-6-carbonitrile]		170	20000	110		77
